In patent publication US20130012531A1, “TREATMENT METHOD” (priority 2010, published 2013):
Where two headings read alike, the source gives them in different places.

Key:
[1] = Plasma and ocular tissue drug concentration after topical eye drops; format: in vivo, Norway Brown rats; conditions: for concentration at 5 hours after third drop: female, Norway Brown, rat, topical, 30 μl (5 mg/ml) per drop, three drops over 24 hours, 30 μl drops to left eye only, three times over 24 hours
Experimental: Female Norway Brown rats were used during these studies. Rats were purchased from Charles River (Portage, Mich.). […]
Rats were euthanized by CO2 inhalation before enucleation and collection of plasma samples. Samples were frozen immediately over dry ice after collection and then stored at −80° C. The ocular tissues were processed through a dissection-pulverization-drug extraction process. Frozen eye sectioning was performed by the following steps. The preparation of rat eye cups was done by removing the anterior portion of the eye with a razor blade followed by removal of the lens and frozen vitreous with forceps. A sagittal section was made in the eye cup before collection of the retina/choroid tissue by scraping the exposed sclera with the round end of a spatula until the pigmented tissue was completely removed from the scleral tissue. The collected tissues were pulverized under liquid nitrogen. Frozen tissue was carefully placed in a liquid nitrogen primed BioPulverizer (Biospec Products Inc, Bartlesville, Okla.). Following pulverization the tissue powder was removed from the pulverizer and transferred into a polypropylene tube. Extraction buffer (50% methanol/50% 0.5 M HCl) was added to tissue powder followed by two cycles of sonication, centrifugation, and supernatant collection. Tissue homogenate supernatant was pooled and frozen on dry ice then stored at −80° C. until drug analysis. The extraction efficacy of this methodology was assumed to be 100% for calculation purposes.
Plasma samples and eye tissue extracts were analyzed for pazopanib using a validated analytical method based on protein precipitation, followed by HPLC/MS/MS analysis, Using 50 μl aliquot of plasma and eye tissue extract, the lower limit of quantification of pazopanib was 1 ng/ml for plasma and 10 ng/ml for eye tissue extract. The higher limit of quantification was 500 ng/ml for plasma and 5000 ng/ml for eye tissue extracts. The computer systems that were used on these studies to acquire and quantify data included Analyst Version 1.4,1 and SMS2000 Version 1.6. Plasma sample concentrations were expressed as ng pazopanib/ml. Tissue concentrations were determined by the following formula: Pazopanib ng/g tissue=([concentration in supernatant ng/ml*extract volume ml]/tissue weight g).

[2] = system: CNV lesions; experiment: Histology (HE) of CNV lesion area on post-laser day 14; format: in vivo, Brown Norway rats
Experimental: (§1) Male Brown Norway rats (10-12 weeks of age, […] weighing 170 to 360 g) were used throughout this study. The animals were treated according to ARVO Statement on the use of animals in ophthalmic and vision research, and all animal experiments were reviewed and approved by municipal and University Hospital animal care committees in Leipzig. The rats were anesthetized with intraperitoneal ketamine (100 mg/kg; Ratiopharm, Ulm, Germany) and xylazine (BayerVital, Leverkusen, Germany; 10 mg/kg). Topical application of tropicamide (5 mg/ml) and phenylephrine hydrochloride (Ankerpharm, Rudolstadt, Germany; 50 mg/ml) were instilled for mydriasis during laser photocoagulation and fluorescein angiography. Fourteen days after laser injury, rats were humanely euthanized using overdoses of carbon dioxide.
(§2) Animals were treated using laser photocoagulation-induced rupture of Bruch's membrane using a 545 nm dye laser (Coherent Argon Dye Laser #920, Coherent Medical Laser, Palo Alto, Calif.) attached to a slit lamp (Carl Zeiss, Oberkochen, Germany). A contact lens was used to retain corneal clarity through photocoagulation. The laser spots were placed separately using the following settings; 50-μm diameter, 0.1 second duration, and 180-mW intensity. To rupture Bruch's membrane, four to seven laser spots were applied between the major retinal vessels close to the optic disc. Pazopanib (approximately 30 μl of a 5 mg/ml sterile-filtered solution) was administered twice daily. Animals of the control group received a vehicle only.
After the rats were euthanized on day 14, eyes were immediately dissected and fixed with 4% paraformaldehyde (dissolved in PBS). […] Three to five serial sections from each CNV membrane were measured, and the highest value (representing the top of a given CNV complex) was stored. Digitized images were analyzed and measured with the concomitant image-analysis software (Axiovision; Carl Zeiss). Each lesion was encircled manually, and their area (in μm^2) was calculated by the program.

[3] = system: experimental CNV (choroidal neovascularization) leakage; experiment: Fluorescence angiography in experimental laser-induced CNV; format: in vivo, Brown Norway rats
Experimental: as §1, §2
Aiming to document treatment of CNV in its early stage, a treatment schedule was used as follows. Laser photocoagulation was carried out as described above, and pazopanib was applied twice a day topically from post laser day 6 until study end on post laser day 14. Coagulated lesions were first documented by angiography on day 7 post laser, and only rats with ocular CNV were included in the analysis. Sodium fluorescein was injected into tail vein of the anesthetized rats and fluorescein angiograms were obtained by means of a fundus camera (FD-31A, Topcon, Tokyo, Japan). On day 14, rats underwent a second angiography. Angiograms taken 100 to 140 seconds after injection were converted to digital images, and areas of fluorescein leakage with intensity as high as in major vessels were quantified in a masked fashion BY two of us (YY; XMY) using a computer software (NIH image, Research Service Branch, Bethesda, Md.). Differences in fluorescence were calculated by the following formula:
Area of fluorescein leakage on day 14×100%/area of fluorescein leakage on day 7.

[4] = Ocular tissue distribution and systemic concentrations of radioactivity after topical ocular administration; format: in vivo, Dutch belted (pigmented) rabbits
Experimental: The ocular tissue distribution and systemic concentrations of radioactivity were assessed following topical ocular administration of pazopanib to Dutch belted (pigmented) rabbits. A single 60-μL at a target dose of 0.3 mg/dose (30 μCi/dose) was administered to the right eye. Blood and ocular tissues from both the dosed and non-dosed (left) eye were collected from one animal at each of eight sampling times up to 24 h, and analyzed for total radioactivity.

[5] = single 60-μL topical dose 0.3 mg
[6] = single 60-μL topical dose 0.3 mg, 2 h

- concentration at 5 hours after third drop ([1]; eye cup tissues of the fellow non-treated eye (OD), read-out: pazopanib in eye cup tissues, fellow non-treated eye (OD), mean): 159 ng/g
- concentration at 5 hours after third drop ([1]; read-out: pazopanib in eye cup tissues (sclera, choroid, retina), treated eye (OS), mean): 503 ng/g
- plasma level after 24 hours ([1]; single 30 μl eye drop): undetectable
- time of peak plasma level ([1]; single 30 μl eye drop): 60 min
- peak plasma level ([1]; single 30 μl eye drop (5 mg/ml)): ~300 ng/mL
- time of choroid peak level [4, 5]: 8 h
- time of highest concentration in blood [4, 5]: 1 h
- time of highest concentration in plasma [4, 5]: 2 h
- time of retina peak level [4, 5]: 4 h
- highest concentration of radioactivity in blood ([4]; single 60-μL topical dose 0.3 mg to right eye, at 1 h): 11.3 ng eq/g
- highest concentration of radioactivity in plasma ([4]; single 60-μL topical dose 0.3 mg to right eye, at 2 h): 12,8 ng eq/g
- choroid level of radioactivity at 2 h [4, 6]: 40.6 ng eq/g
- retina level of radioactivity at 2 h [4, 6]: 9.17 ng eq/g
- retina peak level of radioactivity ([4]; single 60-μL topical dose 0.3 mg, at 4 h): 10.2 ng eq/g
- choroid peak level of radioactivity ([4]; single 60-μL topical dose 0.3 mg, at 8 h): 60.1 ng eq/g
Compound: Cc1ccc(Nc2nccc(N(C)c3ccc4c(C)n(C)nc4c3)n2)cc1S(N)(=O)=O [pazopanib, 5-[[4-[(2,3-dimethyl-2H-indazol-6-yl)methylamino]-2-pyrimidinyl]amino]-2-methylbenzenesulfonamide]
- CNV lesion area ([2]; eyes treated topically with pazopanib, day 14 after laser): 7,760.3±2,312.0 μm^2
- inhibition in lesion size ([2]; lasered eyes from rats treated topically in the fellow eye): ~34%
- inhibition in lesion size compared to vehicle control ([2]; topically treated eyes, day 14): 71.7%
- Area of fluorescein leakage on day 14 x 100% / area on day 7 ([3]; lesioned eyes whose fellow (contralateral) eye was pazopanib-treated, % of baseline day 7): 115.24±16.72%
- development of CNV lesions (vessel leakage, fluorescence angiography) ([3]; topically administered, post laser days 7 to 14, versus vehicle): significantly reduced
- Area of fluorescein leakage on day 14 x 100% / area on day 7 ([3]; topically treated eyes, twice daily 5 mg/ml eye drops, post laser day 6-14, mean±SD, baseline 100% at day 7): 111.41±21.34%
- inhibition of further lesion development ([3]; twice-daily topical administration, versus vehicle control eyes): > 89%
